Read-outs that look alike come from different tables or passages of the source.
Tests used:
[1] = Conversion of PAA prodrug to urinary PAGN in 130 HE patients at steady state dosing; format: in vivo, human; conditions: steady state dosing with NaPBA or equivalent dose of HPN-100
Method: As disclosed herein, additional trials have been performed to evaluate the conversion of PAA to urinary PAGN in subjects with HE. Urinary PAGN output was measured in 130 HE patients during steady state dosing with either NaPBA or an equivalent dose of HPN-100. As summarized in Table 11, the mean percent conversion of PAA prodrug to urinary PAGN in HE patients was about 57%, with a 95% confidence interval range of 52-63%.

[2] = cited from earlier work; for Mean percent conversion of HPN-100 to urinary PAGN: 8 subjects
[3] = tested on: subjects with cirrhosis and HE; assay: HALT-HE clinical trial: count of HE events over 16 weeks by plasma ammonia level; format: in vivo, human
Method: The relationship between HE events and fasting ammonia levels was evaluated in subjects from the HALT-HE clinical trial (HPN-100-008, ClinicalTrials.gov identifier NCT00999167). To be eligible for HE analysis, subject had to (1) be included in the HALT-HE (Part B) safety population, (2) have at least one treatment with a study drug (either HPN-100 or placebo), and (3) have a quantifiable measurement of plasma ammonia from a blood specimen drawn at the visit and time point of interest. Of the 178 total subjects enrolled in the HALT-HE study and included in the safety population, 171 met the additional criteria.
Fasting ammonia levels were measured on day 1 (baseline) and at days 7 and 14. Day 1 values were derived from the measurement closest to, but prior to, initiation of dosing. Day 7 and 14 values were obtained from the nominal visit day and time point (pre-dose or 4-hour). To account for differences in local laboratories used during the clinical trial, local measurements of ammonia were standardized to an upper limit of normal (ULN) of 35 μmol/L according to the following formula:
Ammoniastd=Ammonialocal*(35/ULN of Ammonialocal).
[…] An HE event was defined as the occurrence of either (1) a West Haven Grade 2 or above or (2) a West Haven Grade 1 AND an asterixis grade increase of 1, if baseline West Haven was 0.
To describe the relationship between plasma ammonia levels and HE events, ammonia levels at the nominal times were initially grouped into five categories as multiples of the standardized ULN (35 μmol/L): (1) [0-≦0.5], (2) [0.5-≦1.0], (3) [1.0-≦1.5], (4) [1.5-≦2.0], and (5) [>2.0].
Each subject had between zero and eight HE episodes over the course of their exposure to study drug. The relationship between ammonia at a given nominal time and the number of HE events was modeled using a negative binomial model whereby the effect of study drug was considered only after controlling for ammonia level. […] Based on the model, the number of HE events was estimated for each level of ammonia. By comparing each level of ammonia to the lowest level, the pattern of the relationship could not only be described but also statistically tested through a priori contrasts.
The relationship between HE events and ammonia levels at day 7 (pre-dose), day 7 (four hours after dosing), day 14 (pre-dose), and day 14 (four hours after dosing) for each of these groups is summarized in FIGS. 2-6. […] The relationship between HE events and ammonia levels at day 1, day 7 (pre-dose), day 7 (four hours after dosing), day 14 (pre-dose), and day 14 (four hours after dosing) for each of these groups is summarized in Tables 1-5, respectively. In each table, the first three rows for each treatment group show results for the three category model ([0-1.0], [>1.0-1.5], and [>1.5]), while the next two rows show results for the two category model ([0-1.5] and [>1.5]). Note that, based on the statistical methodology, estimation of HE events for input category >1.5 in a two category model is not necessarily equal to the result for the three category model.

[4] = ammonia on day 7, four hours post-dose, [0-1.0] ULN, three category model
[5] = ammonia on day 7, four hours post-dose, [0-1.5] ULN, two category model
[6] = ammonia on day 7, four hours post-dose, [>1.0-1.5] ULN, three category model
[7] = ammonia on day 7, four hours post-dose, [>1.5] ULN, three category model
[8] = ammonia on day 7, four hours post-dose, [>1.5] ULN, two category model
[9] = ammonia on day 14 (pre-dose), [0-1.0] ULN, three category model
[10] = ammonia on day 14 (pre-dose), [0-1.5] ULN, two category model
[11] = ammonia on day 14 (pre-dose), [>1.0-1.5] ULN, three category model
[12] = ammonia on day 14 (pre-dose), [>1.5] ULN, three category model
[13] = ammonia on day 14 (pre-dose), [>1.5] ULN, two category model
[14] = ammonia on day 14, four hours post-dose, [0-1.0] ULN, three category model
[15] = ammonia on day 14, four hours post-dose, [0-1.5] ULN, two category model
[16] = ammonia on day 14, four hours post-dose, [>1.0-1.5] ULN, three category model
[17] = ammonia on day 14, four hours post-dose, [>1.5] ULN, three category model
[18] = ammonia on day 14, four hours post-dose, [>1.5] ULN, two category model
[19] = pre-dose ammonia on day 1, [0-1.0] ULN, three category model
[20] = pre-dose ammonia on day 1, [0-1.5] ULN, two category model
[21] = pre-dose ammonia on day 1, [>1.0-1.5] ULN, three category model
[22] = pre-dose ammonia on day 1, [>1.5] ULN, three category model
[23] = pre-dose ammonia on day 1, [>1.5] ULN, two category model
[24] = pre-dose ammonia on day 7, [0-1.0] ULN, three category model
[25] = pre-dose ammonia on day 7, [0-1.5] ULN, two category model
[26] = pre-dose ammonia on day 7, [>1.0-1.5] ULN, three category model
[27] = pre-dose ammonia on day 7, [>1.5] ULN, three category model
[28] = pre-dose ammonia on day 7, [>1.5] ULN, two category model

O=C(CCCc1ccccc1)OCC(COC(=O)CCCc1ccccc1)OC(=O)CCCc1ccccc1 [HPN-100, glyceryl tri-[4-phenylbutyrate]]
Mean percent conversion of PAA prodrug to urinary PAGN [1]: consistent | Mean percent conversion of HPN-100 to urinary PAGN ([2]; control group of healthy adults with normal hepatic function): 68.6% | Mean percent conversion of HPN-100 to urinary PAGN ([2]; hepatic impairment with cirrhosis, Child-Pugh score A): 79.6% | Mean percent conversion of HPN-100 to urinary PAGN ([2]; hepatic impairment with cirrhosis, Child-Pugh score B): 58.2% | Mean percent conversion of HPN-100 to urinary PAGN ([2]; hepatic impairment with cirrhosis, Child-Pugh score C): 85.0% | Overall mean percent conversion of HPN-100 to urinary PAGN ([2]; overall for the four subject groups): about 75% | No. of per-subject HE Events Estimated over 16 weeks [3, 4]: 0.16 | No. of per-subject HE Events Estimated over 52 weeks [3, 4]: 0.51 | No. of per-subject HE Events Max [3, 4]: 2 | No. of per-subject HE Events Min [3, 4]: 0 | No. of per-subject HE Events Estimated over 16 weeks [3, 5]: 0.41 | No. of per-subject HE Events Estimated over 52 weeks [3, 5]: 1.34 | No. of per-subject HE Events Max [3, 5]: 5 | No. of per-subject HE Events Min [3, 5]: 0 | No. of per-subject HE Events Estimated over 16 weeks [3, 6]: 0.88 | No. of per-subject HE Events Estimated over 52 weeks [3, 6]: 2.85 | No. of per-subject HE Events Max [3, 6]: 5 | No. of per-subject HE Events Min [3, 6]: 0 | No. of per-subject HE Events Estimated over 16 weeks [3, 7]: 1.16 | No. of per-subject HE Events Estimated over 52 weeks [3, 7]: 3.77 | No. of per-subject HE Events Max [3, 7]: 4 | No. of per-subject HE Events Min [3, 7]: 0 | No. of per-subject HE Events Estimated over 16 weeks [3, 8]: 1.18 | No. of per-subject HE Events Estimated over 52 weeks [3, 8]: 3.85 | No. of per-subject HE Events Max [3, 8]: 4 | No. of per-subject HE Events Min [3, 8]: 0 | No. of per-subject HE Events Estimated over 16 weeks [3, 9]: 0.36 | No. of per-subject HE Events Estimated over 52 weeks [3, 9]: 1.18 | No. of per-subject HE Events Max [3, 9]: 5 | No. of per-subject HE Events Min [3, 9]: 0 | No. of per-subject HE Events Estimated over 16 weeks [3, 10]: 0.37 | No. of per-subject HE Events Estimated over 52 weeks [3, 10]: 1.21 | No. of per-subject HE Events Max [3, 10]: 5 | No. of per-subject HE Events Min [3, 10]: 0 | No. of per-subject HE Events Estimated over 16 weeks [3, 11]: 0.40 | No. of per-subject HE Events Estimated over 52 weeks [3, 11]: 1.29 | No. of per-subject HE Events Max [3, 11]: 2 | No. of per-subject HE Events Min [3, 11]: 0 | No. of per-subject HE Events Estimated over 16 weeks [3, 12]: 1.29 | No. of per-subject HE Events Estimated over 52 weeks [3, 12]: 4.21 | No. of per-subject HE Events Max [3, 12]: 4 | No. of per-subject HE Events Min [3, 12]: 0 | No. of per-subject HE Events Estimated over 16 weeks [3, 13]: 1.29 | No. of per-subject HE Events Estimated over 52 weeks [3, 13]: 4.21 | No. of per-subject HE Events Max [3, 13]: 4 | No. of per-subject HE Events Min [3, 13]: 0 | No. of per-subject HE Events Estimated over 16 weeks [3, 14]: 0.28 | No. of per-subject HE Events Estimated over 52 weeks [3, 14]: 0.92 | No. of per-subject HE Events Max [3, 14]: 4 | No. of per-subject HE Events Min [3, 14]: 0 | No. of per-subject HE Events Estimated over 16 weeks [3, 15]: 0.33 | No. of per-subject HE Events Estimated over 52 weeks [3, 15]: 1.09 | No. of per-subject HE Events Max [3, 15]: 4 | No. of per-subject HE Events Min [3, 15]: 0 | No. of per-subject HE Events Estimated over 16 weeks [3, 16]: 0.41 | No. of per-subject HE Events Estimated over 52 weeks [3, 16]: 1.33 | No. of per-subject HE Events Max [3, 16]: 2 | No. of per-subject HE Events Min [3, 16]: 0 | No. of per-subject HE Events Estimated over 16 weeks [3, 17]: 0.96 | No. of per-subject HE Events Estimated over 52 weeks [3, 17]: 3.13 | No. of per-subject HE Events Max [3, 17]: 4 | No. of per-subject HE Events Min [3, 17]: 0 | No. of per-subject HE Events Estimated over 16 weeks [3, 18]: 0.97 | No. of per-subject HE Events Estimated over 52 weeks [3, 18]: 3.14 | No. of per-subject HE Events Max [3, 18]: 4 | No. of per-subject HE Events Min [3, 18]: 0 | No. of per-subject HE Events Estimated over 16 weeks [3, 19]: 0.25 | No. of per-subject HE Events Estimated over 52 weeks [3, 19]: 0.80 | No. of per-subject HE Events Max [3, 19]: 2 | No. of per-subject HE Events Min [3, 19]: 0 | No. of per-subject HE Events Estimated over 16 weeks [3, 20]: 0.39 | No. of per-subject HE Events Estimated over 52 weeks [3, 20]: 1.26 | No. of per-subject HE Events Max [3, 20]: 5 | No. of per-subject HE Events Min [3, 20]: 0 | No. of per-subject HE Events Estimated over 16 weeks [3, 21]: 0.61 | No. of per-subject HE Events Estimated over 52 weeks [3, 21]: 1.98 | No. of per-subject HE Events Max [3, 21]: 5 | No. of per-subject HE Events Min [3, 21]: 0 | No. of per-subject HE Events Estimated over 16 weeks [3, 22]: 1.35 | No. of per-subject HE Events Estimated over 52 weeks [3, 22]: 4.37 | No. of per-subject HE Events Max [3, 22]: 4 | No. of per-subject HE Events Min [3, 22]: 0 | No. of per-subject HE Events Estimated over 16 weeks [3, 23]: 1.36 | No. of per-subject HE Events Estimated over 52 weeks [3, 23]: 4.41 | No. of per-subject HE Events Max [3, 23]: 4 | No. of per-subject HE Events Min [3, 23]: 0 | No. of per-subject HE Events Estimated over 16 weeks [3, 24]: 0.29 | No. of per-subject HE Events Estimated over 52 weeks [3, 24]: 0.95 | No. of per-subject HE Events Max [3, 24]: 2 | No. of per-subject HE Events Min [3, 24]: 0 | No. of per-subject HE Events Estimated over 16 weeks [3, 25]: 0.45 | No. of per-subject HE Events Estimated over 52 weeks [3, 25]: 1.47 | No. of per-subject HE Events Max [3, 25]: 5 | No. of per-subject HE Events Min [3, 25]: 0 | No. of per-subject HE Events Estimated over 16 weeks [3, 26]: 0.90 | No. of per-subject HE Events Estimated over 52 weeks [3, 26]: 2.92 | No. of per-subject HE Events Max [3, 26]: 5 | No. of per-subject HE Events Min [3, 26]: 0 | No. of per-subject HE Events Estimated over 16 weeks [3, 27]: 1.38 | No. of per-subject HE Events Estimated over 52 weeks [3, 27]: 4.50 | No. of per-subject HE Events Max [3, 27]: 4 | No. of per-subject HE Events Min [3, 27]: 0 | No. of per-subject HE Events Estimated over 16 weeks [3, 28]: 1.40 | No. of per-subject HE Events Estimated over 52 weeks [3, 28]: 4.56 | No. of per-subject HE Events Max [3, 28]: 4 | No. of per-subject HE Events Min [3, 28]: 0

O=C(O)CCCc1ccccc1 [sodium PBA, reference compound]
Mean percent conversion of PAA prodrug to urinary PAGN [1]: consistent

— patent US20180017546A1, “METHODS OF ADMINISTERING AND EVALUATING NITROGEN SCAVENGING DRUGS FOR THE TREATMENT OF HEPATIC ENCEPHALOPATHY” (Horizon Therapeutics, LLC, priority 2012, published 2018)
